Test results: EP1574213B1, “Use of histone deacetylase inhibitors for increasing therapeutic gain in radiotherapy and chemotherapy” (Asan Laboratories Company (Cayman), Limited, priority 2004, dated 2005)

Columns and labels:
[1] = system: TGF-β1, TGF-β2, and TNF-α; experiment: Cytokine mRNA in irradiated skin (RNase protection assay, northern blot); assay type: in vivo, rats; conditions: for radiation-induced TGF-β1, TGF-β2, and TNF-α expression: northern blot, irradiated skin
Protocol: (§1) The timing of the peak appearance of TGF-β1, TGF-β2, and TNF-α expression levels induced by radiation correlated with the beginning of development of radiation-induced damage (FIG. 4). Levels of TGF-β1, TGF-β2, TGF-β3, and TNF-α mRNA were assessed using a multiple cytokine RNase protection assay kit (Riboquant; Pharmingen, San Diego, CA) that contained a template set to allow for the generation of a 32P-labeled antisense RNA probe set that hybridized with the target mRNA for TGF-β1, TGF-β2, TGF-β3, TNF-α, and internal control GAPDH. After hybridization of labeled probe to target RNA, unprotected RNA was digested by a ribonuclease (RNase), and protected RNA fragments were resolved on a 6% polyacrylamide gel and recorded by phosphorimaging (Molecular Dynamics Corp., Sunnyvale, CA). Densitometry was used to quantify the amount of each mRNA species and was normalized to the internal control GAPDH.
The means of skin scores for skin reactions from five rats in each group were calculated. The average levels of cytokine/growth factor mRNA from three skin samples in each group were normalized to the internal control GAPDH and expressed as a ratio to the average level in time-matched control groups. The Mann-Whitney test (Stata Statistical Software, College Station, TX) was used to determine statistical significance at the p < 0.05 level for differences in average skin scores and in average mRNA levels, respectively, between treated and control rats.
Total RNA was isolated from frozen skin samples using Trigent (Molecular Research Center Inc., Cincinnati, OH). Total RNA (30 µg) was electrophoresed in a denaturing formaldehyde-agarose gel, blotted onto Hybond N (Amersham, Amersham, UK), and fixed by ultraviolet (UV) irradiation. The membrane was incubated with 32P-labeled probes, as described below, in Rapid-hyb buffer (Amersham). […]

CT-26 = experiment: Cutaneous tumor growth, topical treatment, CT-26; assay type: in vivo, BALB/c mice; conditions: 4 weeks; 200 mg/mouse twice per day topically
Protocol: (§2) The syngeneic carcinoma cells 1MEA7R.1 and CT-26 (purchased from American Type Culture Collection, Manassas, VA) were subcutaneously injected into the flank areas of female BALB/c mice. The tumor was allowed to a maximum dimension of 0.5 cm. Topical HDAC inhibitors or vehicle was applied at a dose of 200 mg/mouse to cover the whole tumor surface and surrounding skin twice per day for 4 weeks. The tumor size was calculated weekly with a caliper according to the formula ab2/2, where a and b are the larger and smaller diameters (in centimeters), respectively.
(§3) The topical PB formulation was show to have antitumor effects. […] Cutaneous tumors were allowed to grow to the largest dimension 0. 5 cm (FIG. 8D), and PB was topically applied to the tumor surface at 200 mg/mouse twice per day. By 4 weeks, the tumor sizes of 1MEA7R.1 and CT-26 carcinomas in the placebo groups were almost 6- and 1.6-fold larger than those in the PB-treated groups, respectively (FIGS. 8B-8C).

[2] = system: syngeneic carcinoma cells 1MEA7R.1 and CT-26; experiment: Direct antitumor effect on cutaneous tumor growth (both tumors, summary); assay type: in vivo, BALB/c mice; conditions: withdrawal after 5 weeks of treatment
Protocol: as §2, with “Topical HDAC inhibitors or vehicle was applied at a dose of 200 mg/mouse to cover the whole tumor surface and surrounding skin twice per day for 4 weeks.” left out
as §3
The histological findings on skin specimens from 5 irradiated rats in each group are represented as follows: A, subepithelial swelling. B, dry desquamation in more than 50% of the area. C, wet desquamation in more than 50% of the area. D, atrophy of epidermis in most areas. E, atrophy of skin appendages in most areas. F, increased thickness of epithelium with more cell layers. G, increased collagen deposition, more vessel density, and increased thickness of dermis. H, chronic ulceration, necrosis, bullae formation, and more inflammatory cell infiltrate. […]

1MEA7R.1 = experiment: Cutaneous tumor growth, topical treatment, 1MEA7R.1; assay type: in vivo, BALB/c mice; conditions: 4 weeks; 200 mg/mouse twice per day topically
Protocol: as §2, §3

p21Cip1 = p21Cip1 protein level in carcinoma cells in vitro; assay type: cell-based; conditions: BNL 1MEA7R.1 and CT-26 carcinoma cells; 4 mM PB
radiation-induced tumors = experiment: Late radiation-induced skin tumor formation; assay type: in vivo, rats; conditions: 90 weeks, irradiated groups
Source text: The decrease of TGF-β expression caused by PB treatment might decrease the incidence of late radiation-induced tumorigenesis. […] The histology of radiation-induced tumors included fibroma, spindle cell sarcoma, basal cell carcinoma, and squamous cell carcinoma.

irradiated skin = experiment: Radiation-induced skin reaction after 40Gy, gross skin score and H&E histology; assay type: in vivo, Sprague Dawley (SD) rats; conditions: for radiation-induced skin damage including acute dermatitis and desquamation, and late fibrosis, ulceration and necrosis: in words
Protocol: Adult female Sprague Dawley (SD) rats were purchased from the animal center of the National Science Council of Taiwan, and weighed 250-300g at the time of irradiation. Each rat was caged alone and allowed chow and water. They were anesthetized with pentobarbital 50mg/kg i.p. before irradiation. The skin over gluteal area was shaved completely and radiation fields with 2-cm diameter were outlined with a marking pen just prior to irradiation. An electron beam with 6MeV energy produced by a linear accelerator was used. The dose was delivered on Day 0 at 4Gy/min up to 40Gy to the prepared area. Each group treated with a histone deacetylase inhibitor was further divided into three subgroups animals (5 each) : one subgroup treated with skin irradiation followed by vehicle, another with skin irradiation followed by a histone deacetylase inhibitor, and the third with skin irradiation only. Then vaseline (negative control), madecassol ointment (positive control), or either vehicles or the 1% phenylbutyrate cream, 1% valproic acid cream, or 0.1% trichostatin A ointment were applied topically to the irradiated skin twice daily from Day 1 to Day 90 after irradiation. The mean dosage for each treatment in the respective groups was 16mg vaseline per cm^2 skin, 16mg madecassol per cm^2 skin, 50mg phenylbutyrate per cm^2 skin, 50mg valproic acid per cm^2 skin, 5mg trichostatin A per cm^2 skin, and an equivalent amount of the vehicle base for the control groups. The gross skin reactions were evaluated in all rats. Acute skin reactions were evaluated and scored every other day until the 90th day after irradiation using the modified skin score system (Abe Y. and Urano M. Fraction size-dependent acute skin reaction of mice after multiple twice-a-day doses. International Journal of Radiation Oncology, Biology, Physics. 18(2):359-64, 1990): 0=normal, 0.5=slight epilation, 1.0=epilation in about 50% of the radiated area, 1.5=epilation in greater than 50% of the area, 2.0=complete epilation, 2.5=complete epilation with definitive edema or dry desquamation in more than 50% of the area, 3.0=moist desquamation in a small area, 3.5=moist desquamation in most of the area.
The skin score increases with more severe skin reaction. On Day 11, the skin reactions in the groups treated with madecassol (positive control) or histone deacetylase inhibitors were less marked than those in the negative or vehicle control groups. By day 21, the epilation in the negative or vehicle groups had progressed to wet desquamation in most areas whereas in the madecassol or histone deacetylase inhibitor groups, it improved, and epithelium healing had begun quickly. […]

TGF-β3 = TGF-β3 mRNA in irradiated skin (RNase protection assay); assay type: in vivo, rats; conditions: Vaseline, vehicle, or PB
Protocol: as §1
The means of skin scores for skin reactions from five rats in each group were calculated. The average levels of cytokine/growth factor mRNA from three skin samples in each group were normalized to the internal control GAPDH and expressed as a ratio to the average level in time-matched control groups. […]

[3] = system: CNE2 nasopharyngeal carcinoma cells; experiment: Tumor radiosensitization, colony formation; assay type: cell-based; conditions: for Radiation enhancement ratio (RER): 60 minutes prior to radiation, at 10% survival
Protocol: Radiation enhancement ratio (RER) is used to calculate the ratio of radiation doses that give the same effect. RER= (Radiation dose without drug treatment at 10% survival fraction)/(Radiation dose with drug treatment at 10% survival fraction).
Valproic acid (0.1 mM or 0.5 mM) was added in CNE2 nasopharyngeal carcinoma cells 60 minutes prior to radiation with radiation dose from 2 to 16 Gy, then washed out. After one week, colonies containing more than 50 cells were counted.

TGF-beta protein = experiment: Immunofluorescence with anti-TGF-beta1, 2 antibodies in irradiated skin; assay type: in vivo, rats; conditions: Day 180
Source text: The same pathological sections in example 4 were subjected to immunofluorescence with the anti-TGF-beta1, 2 antibodies.

TNF-α = experiment: Immunohistochemistry of TNF-alpha in irradiated skin; assay type: in vivo, rats; conditions: Day 270
Source text: The decrease in late radiation-induced skin damage by topical PB was consistent with the suppression of TNF-α expression (FIG. 6).

EBV thymidine kinase = EBV thymidine kinase activity assay; assay type: cell-based, Epstein-Barr virus (EBV); conditions: 1 nM for 48 hours; EBV-positive Daudi cells
Protocol: For EBV thimidine kinase activity assay, an equal amount of cytosol fraction was incubated with reaction buffer (50mM Tris-HCl pH 7.4, 1mg/ml BSA, 3mM creatine phosphate, 11.2U/ml creatine phosphokinase, 0.1µm [3H-8]-GCV (specific activity 13.5 Ci/mmol), 2.5mM ATP, 2.5mM MgCl2, 10mM NaF, 10mM DTT) at 37°C for 30 mins. The reaction mixtures were added on WhatmanR DE-81 ion exchange chromatography papers, which were then washed with 1.5mM NH4COOH three times to remove unphosphorylated form of [3H-8]-GCV. After air dry, these papers were incubated with liquid scintillation cocktail overnight. The phosphorylation form of [3H-8]-GCV bound on WhatmanR DE-81 ion exchange chromatography paper was measured by LS6500 scintillation counter (Beckman).
The combination of TSA, GCV and radiation produced selectively maximal death in EBV-positive cells but not in EBV-negative cells (FIG. 11B). Daudi cells (EBV+) and HL-60 (EBV-) were treated with ganciclovir (GCV) (10 µg/ml) and /or trichostatin A (TSA) (1 nM) for 48 hours, then radiated with or without 1 Gy radiation (RT). Viable cells were counted 1 week later.

| SMILES | mRNA levels of TGF-β1, TGF-β2, and TNF-α ([1]; Day 28-35 after irradiation) | tumor size in the placebo group relative to the PB-treated group (CT-26) [fold] | time to reach the same size as control or placebo tumors after withdrawal [2] [weeks] | tumor size in the placebo group relative to the PB-treated group (1MEA7R.1) [fold] | p21Cip1 (p21Cip1) | cumulative tumor incident (radiation-induced tumors) [%] | rats showing chronic ulceration, necrosis, bullae formation, and inflammatory cell infiltration (irradiated skin; Day 270) | radiation-induced skin damage including acute dermatitis and desquamation, and late fibrosis, ulceration and necrosis (irradiated skin) | differences in TGF-β3 mRNA levels between irradiated groups (TGF-β3) | plating efficiency ([3]; versus control) | expression of TGF-beta (TGF-beta protein) | TNF-α expression (TNF-α) | radiation-induced TGF-β1, TGF-β2, and TNF-α expression [1] | EBV thymidine kinase activity (EBV thymidine kinase) | Radiation enhancement ratio (RER) ([3]; 0.1 mM) | Radiation enhancement ratio (RER) ([3]; 0.5 mM) |
| --- | --- | --- | --- | --- | --- | --- | --- | --- | --- | --- | --- | --- | --- | --- | --- | --- |
| O=C(O)CCCc1ccccc1 [PB, Phenylbutyrate] | returned to the non-irradiated control levels | ~1.6 | ≤ 2 | ~6 | up-regulation | 0 | zero of five | suppressing | No significant differences | the same | suppressed effectively | suppression | – | – | – | – |
| CC(/C=C/C(=O)NO)=C\[C@@H](C)C(=O)c1ccc(N(C)C)cc1 [TSA, Trichostatin A] | – | – | – | – | – | – | – | suppressing | – | – | – | – | decreased | up-regulated | – | – |
| CCCC(CCC)C(=O)O [Valproic acid] | – | – | – | – | – | – | – | suppressing | – | – | – | – | decreased | – | 1.2 | 1.7 |
